From patent publication US20230190873A1, “METHODS AND COMPOSITIONS RELATED TO THE TREATMENT OF NURR1- AND PPARy-MEDIATED CONDITIONS” (The McLean Hospital Corporation, priority 2017, published 2023)
“And” between values parts separate entries of the source, which are not always exact repeats. Identical values can stand only once. “Also recorded” adds a separate entry of the source.

Assays:
Nurr1-LBD = assay: Nurr1 LBD-dependent luciferase reporter assay in SK-N-BE(2)C cells; format: cell-based; details: GAL4(DBD)-Nurr1(LBD) luciferase reporter
Method: The graph depicts Nurr1-inducing activities by tissue extracts from brain, lung, heart, and kidney. […] The effector plasmid pSVGAL4(DBD)Nurr1(LBD) and the reporter gene for p8XUASL-Luc, together with b-galactosidase expression vector, were transiently transfected into neuroblastoma SK-N-BE(2)C cells. 6 h after transfection, cells were treated with the various tissue extracts for 20 h and the reporter activities were determined by luciferase assay and normalized to the b-galactosidase activity. The basal level of transcriptional activity was normalized to 1. The bars represent means +S.E.M. from three independent experiments.
Graph depicts effects of single or combination treatment with AQ/CQ and prostaglandin (PGE) on Nurr1 activity. As a negative control, human neuroblastoma SK-N-BE(2)C cells transfected with p8XUAS-Luc and pGAL(DBD)Nurr1(LBD) constructs were treated with DMSO alone. As a positive control, cells were treated as described above and harvested 24 h after treatment. An expression vector encoding RSV b-gal was co-transfected to allow normalization for transfection efficiency. Luciferase activity is represented as fold induction after normalization to β-galactosidase compared to cells treated with DMSO alone. Data represent the means ±SEMs of triplicate samples.

PPARγ-LBD = target: T1, PPARγ-LBD (Homo sapiens, UniProt P37231); assay: PPARγ-LBD reporter construct transcriptional activation; format: cell-based
T1 construct: fold induction of reporter constructs of Nurr1-LBD, PPARa-LBD, and PPARγ-LBD; expressed in transfected cells
T1 sequence (P37231 238-503 limits assumed): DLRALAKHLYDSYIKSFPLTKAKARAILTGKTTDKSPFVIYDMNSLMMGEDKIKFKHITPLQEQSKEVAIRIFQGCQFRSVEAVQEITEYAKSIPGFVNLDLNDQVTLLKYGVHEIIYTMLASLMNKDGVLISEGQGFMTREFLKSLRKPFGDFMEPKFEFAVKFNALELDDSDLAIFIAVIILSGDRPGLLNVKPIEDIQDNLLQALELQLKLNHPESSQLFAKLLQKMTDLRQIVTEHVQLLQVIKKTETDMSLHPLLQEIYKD
From the text: FIG. 13 depicts the fold induction of reporter constructs of Nurr1-LBD, PPARa-LBD, and PPARγ-LBD by different concentrations of PGH1, PGH2, PGJ2, and 15-d-PGJ2. […]

PPARa-LBD = target: T2, PPARa-LBD (Homo sapiens, UniProt Q07869); assay: PPARa-LBD reporter construct transcriptional activation; format: cell-based
T2 construct: fold induction of reporter constructs of Nurr1-LBD, PPARa-LBD, and PPARγ-LBD; expressed in transfected cells
T2 sequence (Q07869 239-466 limits assumed): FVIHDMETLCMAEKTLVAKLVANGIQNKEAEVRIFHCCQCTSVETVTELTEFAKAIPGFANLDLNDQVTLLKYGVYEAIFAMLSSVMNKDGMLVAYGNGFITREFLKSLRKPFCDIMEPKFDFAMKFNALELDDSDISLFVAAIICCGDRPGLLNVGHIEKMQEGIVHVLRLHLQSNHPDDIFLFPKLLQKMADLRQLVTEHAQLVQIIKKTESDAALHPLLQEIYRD
From the text: FIG. 13 depicts the fold induction of reporter constructs of Nurr1-LBD, PPARa-LBD, and PPARγ-LBD by different concentrations of PGH1, PGH2, PGJ2, and 15-d-PGJ2.

[1] = tested on: LPS-induced immunoactivated mouse bone marrow-derived macrophages; assay: Pro-inflammatory gene expression in immune-activated mBMMs; format: cell-based; details: LPS- or poly(I:C)-induced immune-activated mBMMs, 18 hrs
Method: FIG. 25 show titrations of prostaglandin A1 (PGA1), A2 (PGA2), E1 (PGE1), E2 (PGE2) in LPS-induced immunoactivated mouse bone marrow-derived macrophages. […] The maximal effective concentration was 20 μM or 10 μg/ml.

[2] = tested on: primary cultured mDA neurons; assay: MPP+ toxicity in primary cultured mDA neurons; format: cell-based; details: MPP+ exposure
From the text: MPP+exposure to mDA neurons decreases the number of TH positive dopaminergic neurons.

[3] = tested on: H9, human embryonic stem cell (hESC); assay: Dopaminergic differentiation of H9 hESC (real time PCR); format: cell-based; details: for expression level of Lmx1A / expression level of TH: 15 days of differentiation, compared to vehicle group
Method: After 15 days of differentiation procedure including floor plate induction (day1˜day6), neural precursor induction (day 6˜day 12), and dopaminergic precursor induction (day 12˜day 15), cells were harvested for RNA extraction and cDNA preparation. The real time PCR was performed using cDNA and the matching primers for FoxA2, Lmx1A, and TH to determine the level of dopaminergic differentiation.

[4] = tested on: MPTP-induced animal model of PD; assay: MPTP-induced animal model of PD; format: in vivo, mice; details: for TH density in the striatum / number of TH+ neurons in the SN: MPTP-treated mice, compared to saline-treated control mice; for latency to fall on a rotating rod (rotarod) / time to descent on the pole (pole test): day 6 following MPTP, compared to saline-treated mice
From the text: FIG. 22A depicts a schematic representation of the administration of PGE1 or PGA1 to MPTP-induced animal model of PD. MPTP-treated mice were pre-administrated with PGE1, PGA1 or saline for 3 days before MPTP injection and post-treated for 5 days after MPTP injection.

CCCCC[C@H](O)/C=C/C1=C(C/C=C\CCCC(=O)O)C(=O)CC1 [PGB2]
transcriptional activity of Nurr1-LBD (Nurr1-LBD): increases transcriptional activity of Nurr1-LBD in a dose dependent manner | transcriptional activity of PPARγ-LBD (PPARγ-LBD): activate transcriptional function of PPARγ in a dose-dependent manner

CCCCC[C@H](O)/C=C/[C@H]1C(=O)C=C[C@@H]1C/C=C\CCCC(=O)O [PGJ2]
transcriptional activity of Nurr1-LBD (Nurr1-LBD): not Nurr1 LBD | transcriptional activity of PPARγ-LBD (PPARγ-LBD): robustly activated PPARs | transcriptional activity of PPARalpha LBD (PPARa-LBD): robustly activated PPARs

CCCCC[C@H](O)/C=C/[C@H]1[C@H](O)CC(=O)[C@@H]1CCCCCCC(=O)O [PGE1]
transcriptional activity of Nurr1-LBD (Nurr1-LBD): specifically and prominently activate the transcription function of Nurr1; also recorded: endogenous activators/agonists of Nurr1 function; also recorded: activate the transcriptional activity of Nurr1 in a dose-dependent manner; also recorded: increase transcriptional activity of Nurr1-LBD in a dose dependent manner | maximal effective concentration [1]: 20 μM and 10 μg/ml | suppression of pro-inflammatory genes TNFα, IL-1β, iNOS and IL-6 [1]: induced suppression of pro-inflammatory genes including TNFα, IL-1β, iNOS and IL-6 in a dose-dependent manner | transcriptional activity of PPARγ-LBD (PPARγ-LBD): failed to induce transcriptional activity of PPARγ-LBD | MPP+-induced loss of TH-positive mDA neurons [2]: significantly rescued the MPP+-induced loss of TH-positive mDA neurons | TH expression compared with cAMP ([3]; 0.01 mM concentration): dramatic increase of TH expression in 0.01 mM concentration, which was even stronger than cAMP | expression level of Lmx1A [3]: significantly higher expression level of Lmx1A and TH | expression level of TH [3]: significantly higher expression level of Lmx1A and TH | TH density in the striatum [4]: retain | number of TH+ neurons in the SN [4]: retain a significant number | latency to fall on a rotating rod (rotarod) [4]: rescues impaired motor behaviors | time to descent on the pole (pole test) [4]: rescues impaired motor behaviors

CCCCC[C@H](O)/C=C/[C@H]1C=CC(=O)[C@@H]1C/C=C\CCCC(=O)O [PGA2]
transcriptional activity of Nurr1-LBD (Nurr1-LBD): increases transcriptional activity of Nurr1-LBD in a dose dependent manner | maximal effective concentration [1]: 20 μM and 10 μg/ml | suppression of pro-inflammatory genes TNFα, IL-1β, iNOS and IL-6 [1]: induced suppression of pro-inflammatory genes including TNFα, IL-1β, iNOS and IL-6 in a dose-dependent manner

CCCCC[C@H](O)/C=C/[C@H]1[C@H](O)CC(=O)[C@@H]1C/C=C\CCCC(=O)O [PGE2]
transcriptional activity of Nurr1-LBD (Nurr1-LBD): specifically and prominently activate the transcription function of Nurr1; also recorded: endogenous activators/agonists of Nurr1 function; also recorded: activate the transcriptional activity of Nurr1 in a dose-dependent manner; also recorded: increase transcriptional activity of Nurr1-LBD in a dose dependent manner | maximal effective concentration [1]: 20 μM and 10 μg/ml | suppression of pro-inflammatory genes TNFα, IL-1β, iNOS and IL-6 [1]: induced suppression of pro-inflammatory genes including TNFα, IL-1β, iNOS and IL-6 in a dose-dependent manner | transcriptional activity of PPARγ-LBD (PPARγ-LBD): failed to induce transcriptional activity of PPARγ-LBD

CCCCC[C@H](O)/C=C/[C@H]1OC(O)C[C@H](O)[C@@H]1C/C=C\CCCC(=O)O (some centres unmarked) [TxB2, reference compound]
transcriptional activity of Nurr1-LBD (Nurr1-LBD): does not activate transcriptional function of Nurr1 and PPARγ; also recorded: failed to induce transcriptional activity of Nurr1-LBD | transcriptional activity of PPARγ-LBD (PPARγ-LBD): does not activate transcriptional function of Nurr1 and PPARγ; also recorded: failed to induce transcriptional activity of PPARγ-LBD

CC/C=C\C[C@H](O)/C=C/[C@H]1[C@H](O)CC(=O)[C@@H]1C/C=C\CCCC(=O)O [PGE3]
transcriptional activity of Nurr1-LBD (Nurr1-LBD): specifically and prominently activate the transcription function of Nurr1; also recorded: endogenous activators/agonists of Nurr1 function

CCCCC[C@H](O)/C=C/[C@H]1C=CC(=O)[C@@H]1CCCCCCC(=O)O [PGA1, prostaglandin A1]
transcriptional activity of Nurr1-LBD (Nurr1-LBD): increases transcriptional activity of Nurr1-LBD in a dose dependent manner | maximal effective concentration [1]: 20 μM and 10 μg/ml | suppression of pro-inflammatory genes TNFα, IL-1β, iNOS and IL-6 [1]: induced suppression of pro-inflammatory genes including TNFα, IL-1β, iNOS and IL-6 in a dose-dependent manner | MPP+-induced loss of TH-positive mDA neurons [2]: significantly rescued the MPP+-induced loss of TH-positive mDA neurons | expression level of Lmx1A [3]: significantly higher expression level of Lmx1A and TH | expression level of TH [3]: significantly higher expression level of Lmx1A and TH | TH density in the striatum [4]: retain | number of TH+ neurons in the SN [4]: retain a significant number | latency to fall on a rotating rod (rotarod) [4]: rescues impaired motor behaviors | time to descent on the pole (pole test) [4]: rescues impaired motor behaviors

CC/C=C\CC(O)/C=C/C1=C(C/C=C\CCCC(=O)O)C(=O)CC1 (centres unmarked) [PGB3]
transcriptional activity of Nurr1-LBD (Nurr1-LBD): increases transcriptional activity of Nurr1-LBD in a dose dependent manner

CCCCC[C@H](O)/C=C/C1=C(CCCCCCC(=O)O)C(=O)CC1 [PGB1]
transcriptional activity of Nurr1-LBD (Nurr1-LBD): increases transcriptional activity of Nurr1-LBD in a dose dependent manner | transcriptional activity of PPARγ-LBD (PPARγ-LBD): activate transcriptional function of PPARγ in a dose-dependent manner | expression level of Lmx1A [3]: significantly higher expression level of Lmx1A and TH | expression level of TH [3]: significantly higher expression level of Lmx1A and TH

CCCCC/C=C/C=C1/C(=O)C=C[C@@H]1C/C=C\CCCC(=O)O [15-d-PGJ2]
transcriptional activity of Nurr1-LBD (Nurr1-LBD): not Nurr1 LBD | transcriptional activity of PPARγ-LBD (PPARγ-LBD): robustly activated PPARs; also recorded: increases transcriptional activity of PPARγ-LBD | transcriptional activity of PPARalpha LBD (PPARa-LBD): robustly activated PPARs

CC/C=C\C[C@H](O)/C=C/[C@H]1C=CC(=O)[C@@H]1C/C=C\CCCC(=O)O [PGA3]
transcriptional activity of Nurr1-LBD (Nurr1-LBD): increases transcriptional activity of Nurr1-LBD in a dose dependent manner

CCCCC[C@H](O)/C=C/C1C2CC(OO2)C1C/C=C\CCCC(=O)O (some centres unmarked) [PGH2]
transcriptional activity of Nurr1-LBD (Nurr1-LBD): robustly activate the transcriptional activities of Nurr1 LBD; also recorded: increase transcriptional activity of Nurr1-LBD in a dose dependent manner | transcriptional activity of PPARγ-LBD (PPARγ-LBD): failed to induce transcriptional activity of PPARγ-LBD

CCCCC[C@H](O)/C=C/[C@@H]1[C@@H](CCCCCCC(=O)O)[C@@H](O)C[C@H]1O [PGF2a]
transcriptional activity of Nurr1-LBD (Nurr1-LBD): activates transcriptional function of Nurr1; also recorded: increases transcriptional activity of Nurr1-LBD in a dose dependent manner | transcriptional activity of PPARγ-LBD (PPARγ-LBD): failed to induce transcriptional activity of PPARγ-LBD
